The values that follow come from patent US20110039763A1, “TARGETED ANTIMICROBIAL MOIETIES” (C3 JIAN, INC., priority 2009, published 2011).

In assay [1] the test system is microorganisms. Briefly: Peptide activities: targeting/binding, antimicrobial, growth or phenotype altering (Tables 7, 8). The format is cell-based. Conditions: peptides having multiple activities.
The test system of assay [2] is microorganisms. Briefly: Morphology, biofilm and growth disrupting peptides (Table 5). It counts as cell-based. Also noted: key: A: Peptide aggregates; B: Less hyphal formation; Clumps; Diffuse clumps and small polyps; F: Diffuse growth; H: Thin; I: Growth inhibition; Microcolony formation; Rippled; Small polyps; Thick; W: Halo formation on top, microlonies on bottom. The source says: In certain embodiments peptides that induce alterations in phenotype or other biological activities can also be used as antimicrobial effector moieties.

Assay [3] deals with microorganisms. The experiment in a line: Targeting peptide binding to target microorganisms (Tables 3, 10, 12). Conditions: microorganism(s) the targeting peptide binds; binding in aqueous buffers varied with peptide solubility, preferably 1x PBS.

“Also recorded” adds a separate entry of the source.

“PF-271: peptide having multiple activities (chain 1 AAQPQTTSP; chain 2 AAQPQTTSP; Peptide with targeting and/or antimicrobial activity)”: the Activities entry in the assay on microorganisms [1] was “G B”. Further, in the assay on microorganisms [2], the “Organism, effect: M. luteus” value is listed as “M. luteus (T)”. Besides, the “Target(s)” value in the assay with microorganisms [3] is listed as “S. epidermidis; also recorded: M. luteus; also recorded: P. aeruginosa; also recorded: A. baumannii”.

As to “PF-273: peptide having multiple activities (chain 1 LVGALLIFVALIYMVLKGNADKN; chain 2 LVGALLIFVALIYMVLKGNADKN; Peptide with targeting and/or antimicrobial activity)”, in the assay on microorganisms [1], the Activities result is given as “G B”. Also, the “Organism, effect: S. epidermidis” value in the assay with microorganisms [2] is recorded as “S. epidermidis (C)”. In addition, the “Target(s)” value in the assay on microorganisms [3] is “S. epidermidis; also recorded: M. luteus; also recorded: P. aeruginosa; also recorded: A. baumannii”.

“PF-276: peptide having multiple activities (chain 1 LDLALSTNSLNLEGFSF; chain 2 LDLALSTNSLNLEGFSF; Peptide with targeting and/or antimicrobial activity)”: the Activities entry in the assay with microorganisms [1] is listed as “G B”. For the same substance, the “Organism, effect: M. luteus” value with microorganisms [2] is given as “M. luteus (M)”. In addition, the “Target(s)” value with microorganisms [3] was “S. epidermidis”.

“PF-292: peptide having multiple activities (chain 1 SFVSTTVRLIFEESKRYKF; chain 2 SFVSTTVRLIFEESKRYKF; Peptide with targeting and/or antimicrobial activity)”: the Activities entry in the assay with microorganisms [1] was “G B”. In addition, in the assay with microorganisms [2], the “Organism, effect: B. subtilis” value is “B. subtilis (C)” and the “Organism, effect: S. epidermidis” value was “S. epidermidis (C)”. For the same substance, the “Target(s)” value in the assay on microorganisms [3] was “S. epidermidis; also recorded: B. subtilis; also recorded: B. fragilis”.

Turning to “PF-294: peptide having multiple activities (chain 1 DFLVNFLWFKGELNWGKKRYK; chain 2 DFLVNFLWFKGELNWGKKRYK; Peptide with targeting and/or antimicrobial activity)”, in the assay with microorganisms [1], the Activities entry is “G B”. Also, in the assay on microorganisms [2], the “Organism, effect: S. epidermidis” value is given as “S. epidermidis (C)”. Moreover, in the assay with microorganisms [3], the “Target(s)” value is recorded as “S. epidermidis; also recorded: C. difficile”.

“PF-297: peptide having multiple activities (ISKGIDDIVYVINKILSIGNIFKIIKRK; Peptide with targeting and/or antimicrobial activity)”: in the assay on microorganisms [1], the Activities result is on record as “G B”. In the assay with microorganisms [2], the “Organism, effect: B. subtilis” value is “B. subtilis (C)” and the “Organism, effect: S. epidermidis” value is recorded as “S. epidermidis (C)”. Also, in the assay with microorganisms [3], the “Target(s)” value is “S. epidermidis; also recorded: B. subtilis; also recorded: B. fragilis”.

Take “PF-301: peptide having multiple activities (GIVLIGLKLIPLLANVLN; Peptide with targeting and/or antimicrobial activity)”: the Activities result in the assay with microorganisms [1] was “G B”. Also, in the assay with microorganisms [2], the “Organism, effect: B. subtilis” value is “B. subtilis (C)” and the “Organism, effect: S. epidermidis” value is on record as “S. epidermidis (C)”. The “Target(s)” value with microorganisms [3] is reported as “C. difficile”.

“PF-306: peptide having multiple activities (GCILPHKKDNYNYIMSKFQDLVKITSKK; Peptide with targeting and/or antimicrobial activity)”: in the assay with microorganisms [1], the Activities result is listed as “G B”. Further, the “Organism, effect: B. subtilis” value in the assay on microorganisms [2] is on record as “B. subtilis (C)”. Further, the “Target(s)” value with microorganisms [3] is recorded as “C. difficile”.

In the case of “PF-313: peptide having multiple activities (YITSHKNARAIIKKFERDEILEEVITHYLNRK; Peptide with targeting and/or antimicrobial activity)”, the Activities entry with microorganisms [1] was “G B”. Further, in the assay on microorganisms [2], the “Organism, effect: S. epidermidis” value is “S. epidermidis (C)”. Moreover, the “Target(s)” value in the assay with microorganisms [3] is listed as “S. epidermidis; also recorded: C. difficile”.

On to “PF-344: peptide having multiple activities (DERLPEAKAIRNFNGSVMVLGR; Peptide with targeting and/or antimicrobial activity)”, for which the Activities result with microorganisms [1] is “G B”. Further, the “Organism, effect: E. coli” value in the assay on microorganisms [2] was “E. coli (A)”. The “Target(s)” value in the assay on microorganisms [3] was “B. subtilis; also recorded: C. jejuni”.

Consider “PF-350: peptide having multiple activities (LAVILRAIVY; Peptide with targeting and/or antimicrobial activity)”, for which the Activities result in the assay with microorganisms [1] is listed as “G B”. In addition, in the assay with microorganisms [2], the “Organism, effect: E. coli” value is “E. coli (C)”; the “Organism, effect: MRSA” value is “MRSA (C)”; the “Organism, effect: S. epidermidis” value is recorded as “S. epidermidis (C)”. Moreover, the “Target(s)” value with microorganisms [3] is on record as “S. epidermidis; also recorded: E. coli; also recorded: E. faecalis; also recorded: C. jeikeium; also recorded: C. jejuni”.

As to “PF-360: peptide having multiple activities (chain 1 MEQKVKVIFVPRSKPDNQLKTFVSAVLFKA; chain 2 MEQKVKVIFVPRSKPDNQLKTFVSAVLFKA; Peptide with targeting and/or antimicrobial activity)”, the Activities result with microorganisms [1] is listed as “G B”. Moreover, in the assay on microorganisms [2], the “Organism, effect: E. coli” value is given as “E. coli (C)”; the “Organism, effect: MRSA” value is “MRSA (H)”; the “Organism, effect: S. epidermidis” value is listed as “S. epidermidis (S)”. Also, in the assay on microorganisms [3], the “Target(s)” value is “S. epidermidis; also recorded: B. subtilis; also recorded: E. coli; also recorded: P. aeruginosa; also recorded: C. albicans; also recorded: E. faecalis; also recorded: C. jeikeium; also recorded: C. jejuni”.

Take “PF-362: peptide having multiple activities (chain 1 NIERILKEKVWMIRCVE; chain 2 NIERILKEKVWMIRCVE; Peptide with targeting and/or antimicrobial activity)”: the Activities result in the assay with microorganisms [1] is given as “G B”. Besides, in the assay with microorganisms [2], the “Organism, effect: E. coli” value is “E. coli (C)” and the “Organism, effect: MRSA” value is reported as “MRSA (C)”. For the same substance, the “Target(s)” value in the assay with microorganisms [3] is “S. epidermidis; also recorded: E. coli; also recorded: P. aeruginosa; also recorded: C. albicans; also recorded: E. faecalis; also recorded: C. jejuni”.

Take “PF-363: peptide having multiple activities (chain 1 SMLSVTVMCLMHASVAANQAMEKKV; chain 2 SMLSVTVMCLMHASVAANQAMEKKV; Peptide with targeting and/or antimicrobial activity)”: in the assay with microorganisms [1], the Activities result was “G B”. Further, in the assay on microorganisms [2] (C. jejuni), the “Organism, effect: C. jejuni” value is “C. jejuni (D)”. In addition, in the assay with microorganisms [2], the “Organism, effect: E. coli” value is reported as “E. coli (C)”; the “Organism, effect: E. faecalis” value was “E. faecalis (D)”; the “Organism, effect: MRSA” value was “MRSA (H)”; the “Organism, effect: S. epidermidis” value is “S. epidermidis (S)”. Also, the “Organism, effect: S. pneumoniae” value with microorganisms [2] (S. pneumoniae) was “S. pneumoniae (R)”. The “Target(s)” value in the assay with microorganisms [3] is “B. subtilis; also recorded: E. coli; also recorded: P. aeruginosa; also recorded: C. albicans; also recorded: S. pneumoniae; also recorded: E. faecalis”.

Turning to “PF-370: peptide having multiple activities (chain 1 VIFLHKESGNLKEIFY; chain 2 VIFLHKESGNLKEIFY; Peptide with targeting and/or antimicrobial activity)”, the Activities entry with microorganisms [1] is on record as “G B”. Further, in the assay with microorganisms [2], the “Organism, effect: E. coli” value was “E. coli (R)”; the “Organism, effect: MRSA” value was “MRSA (C)”; the “Organism, effect: S. epidermidis” value is recorded as “S. epidermidis (C)”. For the same substance, in the assay on microorganisms [3], the “Target(s)” value was “S. epidermidis; also recorded: E. coli; also recorded: P. aeruginosa; also recorded: E. faecalis; also recorded: C. jejuni”.

For “PF-373: peptide having multiple activities (chain 1 HFYLLFER; chain 2 HFYLLFER; Peptide with targeting and/or antimicrobial activity)”, in the assay on microorganisms [1], the Activities result is given as “G B”. Moreover, in the assay on microorganisms [2], the “Organism, effect: MRSA” value is recorded as “MRSA (M)” and the “Organism, effect: S. epidermidis” value was “S. epidermidis (M)”. The “Target(s)” value in the assay on microorganisms [3] was “S. epidermidis and E. coli and P. aeruginosa and C. albicans and MRSA and E. faecalis and C. jejuni”.

Consider “PF-378: peptide having multiple activities (chain 1 ESAKSNLNFLMQEEWALFLLL; chain 2 ESAKSNLNFLMQEEWALFLLL; Peptide with targeting and/or antimicrobial activity)”, for which the Activities entry in the assay with microorganisms [1] is reported as “G B”. In the assay on microorganisms [2], the “Organism, effect: MRSA” value was “MRSA (M)” and the “Organism, effect: S. epidermidis” value is listed as “S. epidermidis (M)”. Moreover, the “Target(s)” value in the assay on microorganisms [3] is “B. subtilis; also recorded: B. fragilis; also recorded: E. coli; also recorded: P. aeruginosa; also recorded: C. jeikeium”.

Consider “PF-381: peptide having multiple activities (chain 1 QGANPCQQVGFTVNDPDCRLAKTV; chain 2 QGANPCQQVGFTVNDPDCRLAKTV; Peptide with targeting and/or antimicrobial activity)”, for which, in the assay on microorganisms [1], the Activities result is recorded as “G B”. In the assay on microorganisms [2], the “Organism, effect: E. coli” value is reported as “E. coli (R)”; the “Organism, effect: E. faecalis” value is on record as “E. faecalis (C)”; the “Organism, effect: MRSA” value was “MRSA (C)”; the “Organism, effect: S. epidermidis” value is “S. epidermidis (C)”. In addition, in the assay with microorganisms [3], the “Target(s)” value is reported as “E. coli; also recorded: P. aeruginosa; also recorded: C. jejuni”.

With “PF-382: peptide having multiple activities (chain 1 KYKCSWCKRVYTLRKDHKTAR; chain 2 KYKCSWCKRVYTLRKDHKTAR; Peptide with targeting and/or antimicrobial activity)”, the Activities result in the assay with microorganisms [1] was “G B”. The “Organism, effect: MRSA” value with microorganisms [2] is listed as “MRSA (M)”. In addition, in the assay on microorganisms [3], the “Target(s)” value is reported as “S. epidermidis; also recorded: B. subtilis; also recorded: B. fragilis; also recorded: E. coli; also recorded: P. aeruginosa; also recorded: E. faecalis; also recorded: C. jeikeium; also recorded: C. jejuni”.
